{"source": "patent US20160375039A1", "about": "“COMPOUNDS FOR THE TREATMENT OF OBESITY AND METHODS OF USE THEREOF” (The Children's Medical Center Corporation, priority 2013, published 2016)", "key": {"HFD-fed obese mice [1]": {"system": "HFD-fed obese mice", "experiment": "Leptin sensitivity: overnight food intake after acute Withaferin A and leptin injection, HFD-fed obese mice", "assay_type": "in vivo, mouse", "experimental": "(§1) Therefore is it possible that Withaferin A exerts the anti-obesity effects through increasing the leptin sensitivity in the brains of the HFD-fed obese mice. To test this hypothesis, leptin was administered to Withaferin A or vehicle treated HFD-fed obese animals. To avoid any possible leptin sensitizing effect of weight loss or decreased food intake created by Withaferin A administration, leptin injections were carried out upon acute Withaferin A treatment. Lean and HFD-fed obese mice were divided into four groups: 1) DMSO+saline, 2) DMSO+leptin, 3) Withaferin A+saline, and 4) Withaferin A+leptin (n=6 per group). The mice were injected (i.p.) with 1.5 mg/kg Withaferin A or vehicle (DMSO) one hour before dark cycle (day zero). 24 hours later, the second and final injection of DMSO or Withaferin A was administered. 30 minutes prior to dark cycle, mice received a single i.p. injection of leptin (1 mg/kg for HFD mice, dissolved in saline; 5 mg/kg for lean mice), or saline. Over night food intakes were recorded (HFD, FIG. 4A; Chow FIG. 4B). […] In addition, HFD-fed obese mice were resistant to the food intake reducing effect of leptin unless they received Withaferin A (FIG. 4A)."}, "lean mice": {"system": "lean mice", "experiment": "Leptin sensitivity: overnight food intake after acute Withaferin A and leptin injection, lean mice", "assay_type": "in vivo, mouse", "experimental": "as §1"}, "[2]": {"conditions": "weight loss product rating; cited from earlier work"}, "[3]": {"system": "HFD-fed obese C57Bl/6J mice", "experiment": "Withaferin A daily i.p. to HFD-fed obese mice for three weeks: body weight, food intake, fasting blood glucose", "assay_type": "in vivo, mouse", "experimental": "To investigate whether Withaferin A can act as an anti-obesity drug by increasing leptin sensitivity and reducing appetite, C57Bl/6J mice were placed on a high fat diet (HFD; Research Diets, D12451, 45 kcal % fat) feeding for 16 weeks. After establishment of obesity and leptin resistance, mice were administered Withaferin A (at 2 mg/kg, in 25 μl DMSO, once per day) and vehicle (DMSO, 25 n1) with intraperitoneal (i.p.) injection. The animals had free access to food and water unless otherwise stated. In all experiments, three days prior to drug administration, the animals went through an acclimation period where they were given DMSO (25 n1) to reduce the effect of stress created by i.p. injection.\nFollowing three days acclimation, mice were administered Withaferin A daily i.p. injections at 2 mg/kg for three weeks in 25 μl of DMSO as vehicle, whereas the control group received the same volume of DMSO. […] At day 21 of the experiment, the 6-hour fasting blood glucose of mice was measured."}, "HFD-fed obese mice [4]": {"system": "HFD-fed obese mice", "experiment": "Insulin Tolerance Test (ITT)", "assay_type": "in vivo, mouse", "conditions": "2 mg/kg i.p., day 16, insulin 1 IU/kg i.p.", "experimental": "(§2) In order to analyze the effect of Withaferin A on glucose homeostasis, we performed Glucose Tolerance Test (GTT) and Insulin Tolerance Test (ITT) after chronic i.p. Withaferin A treatment (2 mg/kg). For GTT, mice were fasted overnight following one week of Withaferin A treatment and received an i.p. injection of D-glucose (1 g/kg) in the morning. For ITT, after 16 days of Withaferin A treatment, mice were fasted for 6 hours (from 8 a.m. to 2 p.m.) and recombinant human insulin (1 IU/kg from Eli Lilly) was injected intraperitoneally. In both procedures, blood glucose was measured from tail vein blood at 0, 15, 30, 60, 90 and 120 minutes after injection."}, "HFD-fed mice": {"system": "HFD-fed mice", "experiment": "Body composition by Dual-Emission X-ray Absorptiometry (DEXA)", "assay_type": "in vivo, mouse", "conditions": "i.p. 2 mg/kg, two weeks", "experimental": "To analyze the change in body composition during Withaferin A treatment (i.p. 2 mg/kg), lean mass and fat mass of mice with Dual-Emission X-ray Absorptiometry (DEXA) were measured."}, "[5]": {"system": "10-week old lean mice on chow diet", "experiment": "Withaferin A i.p. to lean mice on chow diet for three weeks", "assay_type": "in vivo, mouse", "conditions": "2 mg/kg i.p.", "experimental": "Withaferin A was administered to 10-week old lean mice on chow diet at 2 mg/kg for three weeks by i.p. injections."}, "HFD-fed obese mice [6]": {"system": "HFD-fed obese mice", "experiment": "Glucose Tolerance Test (GTT)", "assay_type": "in vivo, mouse", "conditions": "2 mg/kg i.p., one week, D-glucose 1 g/kg i.p., vs vehicle", "experimental": "as §2"}, "[7]": {"system": "leptin receptor deficient (db/db) mice", "experiment": "Withaferin A to leptin receptor deficient (db/db) mouse model of obesity", "assay_type": "in vivo", "conditions": "2 mg/kg once a day", "experimental": "To explore whether Withaferin A's effect is leptin dependent, Withaferin A (2 mg/kg, once a day, in 2Sμ1 DMSO) was administered to leptin receptor deficient (db/db) mouse model of obesity."}}, "note": "Entries after “also recorded” stand apart in the source; their conditions may differ."}
{"compound": "leptin: peptide hormone, afferent signal in a negative feedback loop regulating food intake and body weight", "values": [{"measurement": "food intake reducing effect of leptin", "setting": "HFD-fed obese mice [1]; HFD-fed obese mice without Withaferin A, leptin 1 mg/kg single i.p. injection", "value": "resistant"}, {"measurement": "overnight food intake", "setting": "lean mice; vehicle treated lean mice, leptin 5 mg/kg single i.p. injection", "value": "suppressed food intake"}]}
{"compound": "Conjugated linoleic acid", "values": [{"measurement": "Effectiveness", "setting": "[2]", "value": "Possibly"}, {"measurement": "Safety", "setting": "[2]", "value": "Possibly safe"}]}
{"compound": "CC1=C(CO)C(=O)O[C@@H]([C@@H](C)[C@H]2CC[C@H]3[C@@H]4C[C@H]5O[C@]56[C@@H](O)C=CC(=O)[C@]6(C)[C@H]4CC[C@]23C)C1", "note": "[Withaferin A]", "values": [{"measurement": "6-hour fasting blood glucose", "setting": "[3]; 2 mg/kg i.p. daily, day 21, 2 mg/kg", "value": "decreases blood glucose; also recorded: robust decrease"}, {"measurement": "food intake", "setting": "[3]; 2 mg/kg i.p. daily, three days average within first week", "value": "significantly decreased"}, {"measurement": "body weight", "setting": "[3]; 2 mg/kg i.p. once per day, three weeks, vs DMSO vehicle", "value": "significantly decreased"}, {"measurement": "insulin sensitivity (ITT)", "setting": "HFD-fed obese mice [4]", "value": "improved insulin sensitivity"}, {"measurement": "fat percentage", "setting": "HFD-fed mice", "value": "decreased significantly"}, {"measurement": "lean mass", "setting": "HFD-fed mice", "value": "did not change"}, {"measurement": "blood glucose levels", "setting": "[5]; after 3 weeks of treatment", "value": "not altered"}, {"measurement": "body weight", "setting": "[5]; three weeks", "value": "failed to induce bodyweight loss"}, {"measurement": "food intake", "setting": "[5]; three weeks", "value": "failed to induce bodyweight loss or suppress food intake"}, {"measurement": "anorectic action of leptin", "setting": "HFD-fed obese mice [1]; HFD mice, Withaferin A 1.5 mg/kg i.p. before leptin 1 mg/kg", "value": "significantly potentiated"}, {"measurement": "decrease in food intake upon leptin injection", "setting": "HFD-fed obese mice [1]; HFD-fed obese mice, Withaferin A 1.5 mg/kg i.p. + leptin 1 mg/kg i.p., compared to vehicle treated non-leptin group", "value": 75, "unit": "%"}, {"measurement": "overnight food intake", "setting": "HFD-fed obese mice [1]; HFD-fed obese mice, Withaferin A 1.5 mg/kg i.p. alone, no exogenous leptin", "value": "decreased the food intake"}, {"measurement": "glucose homeostasis (AUC of GTT)", "setting": "HFD-fed obese mice [6]", "value": "significantly improved"}, {"measurement": "body weight", "setting": "[7]", "value": "continued to increase similar to the vehicle treated group"}, {"measurement": "food intake", "setting": "[7]", "value": "did not show a decrease"}, {"measurement": "blood glucose levels", "setting": "[7]; end of 3-week treatment", "value": "tendency to decrease but did not reach statistically significant levels"}, {"measurement": "decrease in food intake upon leptin injection", "setting": "lean mice; lean mice, Withaferin A 1.5 mg/kg i.p. + leptin 5 mg/kg i.p., compared to vehicle treated non-leptin group", "value": "approximately 50%"}, {"measurement": "anorectic action of leptin", "setting": "lean mice; lean mice, Withaferin A 1.5 mg/kg i.p. before leptin 5 mg/kg", "value": "significantly potentiated"}, {"measurement": "overnight food intake", "setting": "lean mice; lean mice, Withaferin A 1.5 mg/kg i.p. two injections, without leptin", "value": "did not change"}]}
{"compound": "[Cr]", "note": "[Chromium]", "values": [{"measurement": "Safety", "setting": "[2]", "value": "Likely safe"}]}
